Results on five compounds are retold here after article PMC9499365, “Stereoselective Synthesis and Application of Gibberellic Acid-Derived Aminodiols” (International Journal of Molecular Sciences, 2022).

As a reminder, the inhibition is the share of the control response that was lost under treatment. The melting point is the temperature, or range, at which the solid turns liquid.

A value given as a limit tells only on which side of the number the result lay.

Data set [1] relates to HeLa cells (cervical cancer). Nature of the data set: MTT antiproliferative assay, HeLa. In kind it is cell-based, human. Particulars: Homo sapiens, 72 h, read-out: Growth inhibition (%) ± SEM. The method, then: (§1) The in vitro antiproliferative activities of the synthesized aminodiols 4–38 against a panel of different human cancer cell lines of gynecological origin, including cervical (SiHA and HeLa), breast (MCF7 and MDA-MB-231), and ovary (A2780) cancers were assayed by the MTT method. […] Cisplatin, a clinically applied anticancer agent, was used as a reference compound and the results are summarized in Figure 3 and Table S1 in Supporting Information. […] On the other hand, none of the prepared azole derivatives exerted relevant activity.
(§2) The growth-inhibitory effects of the gibberellic acid-based aminodiol derivatives were determined by a standard MTT (3-(4,5-dimethylthiazol-2-yl)-2,5-diphenyltetrazolium bromide) assay on a panel containing five cell lines, including Hela and Siha (cervical cancers); MDA-MB-231 and MCF-7 (breast cancers); and A2780 ovarian cancer cells. The most promising agents were additionally tested against NIH/3T3 mouse embryo fibroblast cells. All cell lines were purchased from the European Collection of Cell Cultures (Salisbury, UK) except SiHa, which was obtained from the American Tissue Culture Collection (Manassas, VA, USA). The cells were maintained in minimal essential medium supplemented with 10% fetal bovine serum, 1% non-essential amino acids, and 1% penicillin-streptomycin at 37 °C in a humidified atmosphere containing 5% CO2. All media and supplements were obtained from Lonza Group Ltd., (Basel, Switzerland). Cancer cells were seeded into 96-well plates (5000 cells/well), after an overnight incubation the test compound was added in 2 different concentrations (10 µM and 30 µM) and incubated for another 72 h under cell-culturing conditions. Then, 20 μL of 5 mg/mL MTT solution was added to each well and incubated for a further 4 h. The medium was removed, and the precipitated formazan crystals were dissolved in DMSO during 60 min of shaking at 37 °C. As the final step, the absorbance was measured at 545 nm by using a microplate reader (SPECTROStar Nano, BMG Labtech, Offenburg, Germany). Untreated cells were included as controls. […] These agents were additionally tested against NIH/3T3 fibroblasts to obtain results about their cancer selectivity. Two independent experiments were performed with five wells for each condition. Cisplatin (Ebewe GmbH, Unterach, Austria), a clinically used anticancer agent, was used as a positive control. Calculations were performed utilizing the GraphPad Prism 5.01 software (GraphPad Software Inc., San Diego, CA, USA).
In general terms: Tetrazolium dyes change colour on reduction, which living cells bring about.

Data set [2] concerns SiHa cells (cervical cancer). Nature of the data set: MTT antiproliferative assay, SiHa. The note with it: Homo sapiens, 72 h, read-out: Growth inhibition (%) ± SEM. In kind it is cell-based, human. Here is the method: as §1, §2
In data set [3] the test system is MDA-MB-231 cells (breast cancer). Nature of the data set: MTT antiproliferative assay, MDA-MB-231. Particulars: Homo sapiens, 72 h, read-out: Growth inhibition (%) ± SEM; for inhibition at 10 µM: MDA-MB-231, 10 μM; for inhibition at 30 µM: MDA-MB-231, 30 μM. In kind it is cell-based, human. The method, then: as §1, §2
The test system of data set [4] is A2780 ovarian cancer cells. Nature of the data set: MTT antiproliferative assay, A2780. Particulars: Homo sapiens, 72 h, read-out: Growth inhibition (%) ± SEM; for inhibition at 10 µM: A2780, 10 μM; for inhibition at 30 µM: A2780, 30 μM. In kind it is cell-based, human. The method, then: as §1, §2

In turn, `CCOC(=O)[C@@H]1c2c(C)cccc2C2CC[C@]3(O)C[C@@]21C[C@]3(O)CNCc1cccc2ccccc12` (stereo partly drawn) [Compound 38, Ethyl (7S,8S,9aR,10S)-7,8-dihydroxy-1-methyl-8-(((naphthalen-1-ylmethyl)amino)methyl)-4b,6,7,8,9,10-hexahydro-5H-7,9a-methanobenzo[a]azulene-10-carboxylate] yielded a melting point of 61 to 65 °C. In addition, in data set [1], the inhibition at 10 µM came to 26.9 ± 0.53% and the inhibition at 30 µM turned out to be 96.5 ± 1.72%. Further, in data set [2], the inhibition at 10 µM turned out to be 27.9 ± 0.93% and the inhibition at 30 µM stood at 97.63 ± 0.8%. In data set [3], the inhibition at 10 µM was below 20% and the inhibition at 30 µM was found to be 96.17 ± 0.76%. Further, in data set [4], the inhibition at 10 µM worked out at 28.6 ± 2.66% and the inhibition at 30 µM turned out to be 95.23 ± 0.66%.
Take `CCOC(=O)[C@H]1c2c(C)cccc2[C@H]2CC[C@]3(O)C[C@@]21C[C@]3(O)CNCc1ccccc1` [Compound 4, Ethyl (4bS,7S,8S,9aR,10R)-8-((benzylamino)methyl)-7,8-dihydroxy-1-methyl-4b,6,7,8,9,10-hexahydro-5H-7,9a-methanobenzo[a]azulene-10-carboxylate]: the melting point was 97 to 99 °C. Further, in data set [1], the inhibition at 10 µM is 26.9 ± 1.55% and the inhibition at 30 µM came out at 25.9 ± 3.2%. Besides, in data set [2], the inhibition at 10 µM worked out at 23.3 ± 0.63% and the inhibition at 30 µM was determined as 57 ± 1.16%. Besides, in data set [3], the inhibition at 10 µM is below 20% and the inhibition at 30 µM stood at 31.6 ± 1.49%. For the same compound, in data set [4], the inhibition at 10 µM is below 20% and the inhibition at 30 µM came to 49.9 ± 1.76%.
Compound `CCOC(=O)[C@@H]1c2c(C)cccc2C2CC[C@]3(O)C[C@@]21C[C@]3(O)CN[C@@H](C)c1ccc2ccccc2c1` (stereo partly drawn) [Compound 35, Ethyl (7S,8S,9aR,10S)-7,8-dihydroxy-1-methyl-8-((((S)-1-(naphthalen-2-yl)ethyl)amino)methyl)-4b,6,7,8,9,10-hexahydro-5H-7,9a-methanobenzo[a]azulene-10-carboxylate] yielded a melting point of 56 to 59 °C. Moreover, in data set [1], the inhibition at 10 µM worked out at 40.1 ± 1.21% and the inhibition at 30 µM is 95.9 ± 2.21%. In data set [2], the inhibition at 10 µM came out at 44.6 ± 0.74% and the inhibition at 30 µM came to 98.41 ± 0.74%. Further, in data set [3], the inhibition at 10 µM was determined as 29.4 ± 1.66% and the inhibition at 30 µM worked out at 96.81 ± 0.82%. For the same compound, in data set [4], the inhibition at 10 µM turned out to be 42.7 ± 2.63% and the inhibition at 30 µM is 95.4 ± 0.48%.
In turn, `CCOC(=O)[C@H]1c2c(C)cccc2[C@H]2CC[C@]3(O)C[C@@]21C[C@]3(O)CN(Cc1ccccc1)Cc1ccccc1` [Compound 17, Ethyl (4bS,7S,8S,9aR,10R)-8-((dibenzylamino)methyl)-7,8-dihydroxy-1-methyl-4b,6,7,8,9,10-hexahydro-5H-7,9a-methanobenzo[a]azulene-10-carboxylate] yielded a melting point of 101.4 to 103 °C. In addition, in data set [1], the inhibition at 10 µM worked out at 40.8 ± 1.19% and the inhibition at 30 µM is 45.6 ± 1.48%. Also, in data set [2], the inhibition at 10 µM is below 20% and the inhibition at 30 µM is 47.1 ± 1.74%. Further, in data set [3], the inhibition at 10 µM was below 20% and the inhibition at 30 µM worked out at 36.9 ± 1.58%. Besides, in data set [4], the inhibition at 10 µM was below 20% and the inhibition at 30 µM came out at 78.9 ± 1.12%.
Take `CCOC(=O)[C@H]1c2c(C)cccc2[C@H]2CC[C@]3(O)C[C@@]21C[C@]3(O)CNCc1ccc(OC)cc1` [Compound 11, Ethyl (4bS,7S,8S,9aR,10R)-7,8-dihydroxy-8-(((4-methoxybenzyl)amino)methyl)-1-methyl-4b,6,7,8,9,10-hexahydro-5H-7,9a-methanobenzo[a]azulene-10-carboxylate]: the melting point lay within 224 to 225 °C. For the same compound, in data set [1], the inhibition at 10 µM was below 20% and the inhibition at 30 µM came out at 60.8 ± 2.44%. Further, in data set [2], the inhibition at 10 µM was found to be 30.7 ± 0.82% and the inhibition at 30 µM was found to be 53.7 ± 0.76%. For the same compound, in data set [3], the inhibition at 10 µM is below 20% and the inhibition at 30 µM was determined as 78.7 ± 1.47%. Besides, in data set [4], the inhibition at 10 µM was 31.7 ± 2.82% and the inhibition at 30 µM was found to be 53.4 ± 1.68%.
